Results on 1 compound are retold here after US20090304674A1, “METHODS FOR TREATING DISEASE BY REGULATING CLL CELL SURVIVAL” (priority 2005, published 2009).

In one assay the test system is CLL cells. Description: Viability of CLL cells cultured with or without rhBAFF and inhibitors (DiOC6/PI flow cytometry). The conditions noted are these: UTC 10 μM, 48 hours. The class given is cell-based, human. As to the method: Freshly thawed CLL B cells were cultured at the concentration of 1×10^6/mL under various conditions. Determination of CLL cell viability in this study was based on the analysis of mitochondrial transmembrane potential (Δψm) using 3,3′-dehexyloxacarbocyamine iodine (DiOC6) and cell membrane permeability to PI, as described. For viability assays, 100 μl of the cell culture was collected at the indicated time points and transferred to polypropylene tubes containing 100 μl of 80 nmol/l DiOC6 (Molecular Probes) and 2 μg/ml PI in FACS buffer. The cells then were incubated at 37° C. for 15 minutes and analyzed within 30 minutes by flow cytometry using a FACSCalibur (Becton Dickinson). Fluorescence was recorded at 525 nm (FL-1) for DiOC6 and at 600 nm (FL-3) for PI.
Background: A flow cytometer gives signals particle by particle.

In assay [1] the test system is canonical NF-κB1 pathway in CLL B cells. Description: Immunoblot of canonical NF-κB1 pathway activation (IκBα degradation/phosphorylation, p65 nuclear translocation) in CLL B cells. The class given is cell-based, human. The following applies: rhBAFF 50 ng/ml, 24 hours, UTC pre-incubated 1 hour. As to the method: Cell lysates were prepared with RIPA buffer (10 mM Tris (pH 7.4), 150 mM NaCl, 1% Triton x 100, 1% deoxycholate, 0.1% SDS, 5 mM EDTA), containing 1 mM PMSF, 0.28 TIU/ml aprotinin, 50 μg/ml leupeptin, 1 mM benzamidine, 0.7 μg/ml pepstatin. Lysates were normalized for total protein (20 μg), subjected to SDS-PAGE (4-15% gradient gels, Bio-Rad, Hercules, Calif.) and immunoblot assay. We incubated the blots with secondary antibodies that were conjugated with horseradish peroxidase. Blots then were prepared for enhanced chemiluminescence (ECL) detection system (Amersham, Little Chalfont, Buckinghamshire, UK) and subsequent autoradiography with Super RX film (Fuji, Tokyo, Japan). The mouse mAb against APRIL (APRIL8) was from Alexis Biochemicals. The mouse mAb against inhibitor of kappa B-α (IκκBα was from Imgenex (San Diego, Calif.). The antibodies against anti-phosho-MAP kinase Erk1/2 and anti-MAP kinase Erk1/2-CT were purchased from Upstate Biotechnology. Antibodies against AKT or phospho-AKT (Ser473) were from Cell Signaling (Beverly, Mass.). Rabbit polyclonal antibodies (Mcl-1, Bcl-2, and Bax) were raised against synthetic peptides.21 Also primary antibodies included β-actin (Sigma Immunochemicals, St Louis, Mo.). Anti-p52 and anti-p65 antibodies were purchased from Upstate Biotechnology.
For fractionation experiments, cells were collected by centrifugation and washed with PBS. The cell pellet containing 5×10^6 cells was suspended in 100 μl of hypotonic buffer (50 mM Tris (pH7.4), 5 mM EDTA, 10 mM NaCl, 0.05% NP-40, 1 mM PMSF, 10 μg/ml Aprotinin, 10 μg/ml Leupeptin, 10 μg/ml Pepstatin, 10 mM β-Glycerophosphate, 1 mM Na-Vanadate, 1 mM NaF). After 10 minutes the lysate was spun and the supernatant was collected as cytoplasmic lysates. The pellet was washed 5 times in hypotonic buffer containing 0.1% NP-40. The remaining pellet was suspended in 100 μl RIPA buffer containing protease and phosphatase inhibitors. After an appropriate amount of 3× sample buffer (200 mM Tris (pH 6.8), 30 mM EDTA, 30% Glycerol, 6% SDS) was added, the sample was boiled for 10 minutes, spun for 10 minutes and the supernatant was recovered as nucleus lysates. Anti-NF kappa B p52 and p65 were purchased from Upstate Biotechnology. Anti-SP-1 was purchased from Santa Cruz Biotechnology (Santa Cruz, Calif.).
Cell lysates were prepared with radioimmunoprecipitation assay (RIPA) buffer (10 mM Tris [pH 7.4], 150 mM NaCl, 1% Triton X-100, 0.1% deoxycholate, 0.1% SDS, 5 mM EDTA), containing 1× complete protease inhibitor cocktail (Roche diagnostics), 1 mM sodium fluoride (NaF), and 1 mM sodium vanadate (Na3VO4). Lysates were normalized for total protein (25 μg) and subjected to SDS-PAGE (4-15% gradient gels, Bio-Rad, Hercules, Calif.) and immunoblot assay. We incubated the blots with secondary antibodies that were conjugated with horseradish peroxidase. Blots then were prepared for enhanced chemiluminescence (ECL) detection system (Amersham, Little Chalfont, United Kingdom) and subsequent autoradiography with Super RX film (Fuji, Tokyo, Japan).
For fractionation experiments, cells were collected by centrifugation and washed with PBS. The cell pellet containing 5×10^6 cells was suspended in 100 μl of hypotonic buffer (50 mM Tris [pH7.4], 5 mM EDTA, 10 mM NaCl, 0.05% Nonidet P40 [NP-40]), containing 1× complete protease inhibitor cocktail, 1 mM NaF, and 1 mM Na3VO4. After 10 minutes, the lysate was spun and the supernatant was collected as cytoplasmic lysates. […]
(In general: In western blotting, separated proteins are transferred to a membrane and probed.)

Assay [2] deals with normal B cells of healthy donors. In words: Viability of isolated normal B cells of healthy donors with or without rhBAFF and UTC. The conditions noted are these: UTC 10 μM, 48 hours. In kind it is cell-based, human. As to the method:
CD19+ B cells of healthy donors were isolated from the buffy coat of blood samples collected from adult volunteers at the San Diego Blood Bank (San Diego, Calif.), as described.
Isolated blood mononuclear cells of patients with CLL were incubated with saturating amounts of Dynabeads coated with anti-CD2 or anti-CD14 mAbs (Dynal A.S. Oslo, Norway). Beadbound cells were removed with a strong magnetic field. Following depletion, less than 0.5% of cells were CD2+ or CD14+, whereas more than 99% were CD19+, as assessed via flow cytometry (data not shown). Peripheral normal CD19+ B cells of healthy donors were purified from the buffy coat of blood samples using CD19 Dynabeads and Detach A Beads (Dynal), following the manufacturer's instructions.
Freshly thawed CLL B cells were cultured at the concentration of 1×10^6/mL under various conditions. Determination of CLL cell viability in this study was based on the analysis of mitochondrial transmembrane potential (Δψm) using 3,3′-dehexyloxacarbocyamine iodine (DiOC6) and cell membrane permeability to PI, as described. […] The cells then were incubated at 37° C. for 15 minutes and analyzed within 30 minutes by flow cytometry using a FACSCalibur (Becton Dickinson). Fluorescence was recorded at 525 nm (FL-1) for DiOC6 and at 600 nm (FL-3) for PI.

A further assay deals with T1, IKK-2 (IKKβ) (Homo sapiens, UniProt O14920).
T1 sequence (O14920 1-756): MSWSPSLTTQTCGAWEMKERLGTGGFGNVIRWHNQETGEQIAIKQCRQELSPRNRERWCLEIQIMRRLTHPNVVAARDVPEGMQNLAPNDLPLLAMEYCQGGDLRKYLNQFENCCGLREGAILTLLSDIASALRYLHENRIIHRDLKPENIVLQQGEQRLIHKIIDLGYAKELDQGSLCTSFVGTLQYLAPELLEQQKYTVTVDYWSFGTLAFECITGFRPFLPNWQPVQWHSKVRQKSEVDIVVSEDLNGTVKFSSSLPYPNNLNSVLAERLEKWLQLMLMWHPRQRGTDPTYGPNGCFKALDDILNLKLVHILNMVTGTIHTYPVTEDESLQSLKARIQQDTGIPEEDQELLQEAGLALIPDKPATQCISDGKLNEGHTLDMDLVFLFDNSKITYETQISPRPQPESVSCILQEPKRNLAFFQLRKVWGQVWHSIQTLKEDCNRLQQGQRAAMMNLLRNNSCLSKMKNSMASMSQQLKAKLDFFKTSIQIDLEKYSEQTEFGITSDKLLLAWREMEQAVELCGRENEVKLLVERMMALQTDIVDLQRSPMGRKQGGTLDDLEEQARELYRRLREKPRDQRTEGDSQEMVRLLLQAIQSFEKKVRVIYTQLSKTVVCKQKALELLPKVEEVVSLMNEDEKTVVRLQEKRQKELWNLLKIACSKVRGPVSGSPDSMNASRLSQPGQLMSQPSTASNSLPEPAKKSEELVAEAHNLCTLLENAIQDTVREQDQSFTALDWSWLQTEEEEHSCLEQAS
The following applies: reported by Podolin and colleagues, cited from earlier work.

SMILES strings stand for the structures. Entries after “also recorded” stand apart in the source; their conditions may differ.

Consider `NC(=O)Nc1sc(-c2ccc(F)cc2)cc1C(N)=O` [UTC, 5-(4-fluorophenyl)-2-ureido-thiophene-3 carboxylic acid amide], for which the “viability of CLL cells versus medium alone” value in the assay with CLL cells (8 patients) was “significantly lower than that of CLL cells cultured with medium alone”. Further, in the assay on CLL cells (rhBAFF 50 ng/ml, anti-BR3 or BR3-Fc 10 μg/ml), the “effect on rhBAFF-enhanced survival/viability of CLL cells” value was “significantly inhibited the capacity of rhBAFF to support CLL cell survival”. For the same compound, in assay [1] (anti-BR3 10 μg/ml), the “inhibition of BAFF-induced translocation of p65 to the nucleus” value is “inhibited BAFF induced nuclear translocation of p65”. Also, the “inhibition of rhBAFF-induced phosphorylation of IκBα” value in assay [1] (anti-BR3 or BR3-Fc 10 μg/ml) was “inhibited phosphorylation of IκBα”. The “survival/viability of isolated normal B cells cultured without rhBAFF” value in assay [2] (8 donors) was “did not have any effect on survival of isolated normal B cells; also recorded: no significant difference”. In assay [2] (rhBAFF 50 ng/ml), the “effect on pro-survival effect of exogenous rhBAFF on normal B cells” value was “could partially block the pro-survival effect of exogenous rhBAFF”. The “selectivity for IKK-2 versus the other ten kinases” value on IKK-2 (IKKβ) (p38α, p38β, p38γ, p38δ, MAPKAPK2, MKK1, MAPK2, COX-1, COX-2, JNK1) is “more than 550 fold”. At IKK-2 (IKKβ), the “selectivity for IKK-2 versus IKK-1” value is recorded as 22 fold and the “selectivity for IKK-2 versus JNK3” value is 200 fold.
